In patent US20060079533A1, “Methods of treating alzheimer's disease” (priority 2001, published 2006):
Counter-ions that a name gives are not always drawn.

melting point: 159 to 161 °C (dec.)
Compound: Clc1ccc([C@H]2CCNC[C@@H]2OCc2ccc3ccccc3c2)cc1 (racemic) (as salt: hydrochloride) [Example 12, (3RS,4RS)-4-(4-chloro-phenyl)-3-(naphthalen-2-ylmethoxy)-piperidine]
